Laboratory results as given in patent publication US20140163095A1, “USE OF ERIBULIN IN THE TREATMENT OF BREAST CANCER” (priority 2012, published 2014).
Marks after values point to notes of the source that are not given here.

Tests used:
[1] = system: locally recurrent or metastatic HER2 negative breast cancer; assay: Phase II clinical trial of eribulin mesylate as first-line treatment (Part 2, additional data); format: in vivo, human
Excerpt: This example provides additional data obtained from the study described above in Example 2. The baseline demographics and characteristics of patients in the study are as set forth below in Table 6.

[2] = system: locally recurrent or metastatic HER2 negative breast cancer; assay: Phase II clinical trial of eribulin mesylate as first-line treatment (Part 1); format: in vivo, human; conditions: for DOR (duration of response), Median months (95% CI) / TTR (time to first response), Median months (95% CI): 13 responders
Procedure: (§1) A multi-center, single-arm, phase II clinical trial of eribulin mesylate was performed to evaluate the objective response rate (ORR) (according to RECIST v1.1) to first-line treatment with single-agent eribulin mesylate in subjects with locally recurrent or metastatic HER2 negative breast cancer. Secondary objectives included the safety and tolerability of eribulin mesylate, time to first response, duration of response (DOR), and progression free survival (PFS).
Patients were excluded from the study if they had inflammatory breast cancer or had received prior chemotherapy, biologic therapy, or investigational therapy for locally recurrent or metastatic breast cancer (patients who received prior endocrine therapy were permitted).
HER2 status was determined by either fluorescence in situ hybridization (FISH) or 0 or 1+ by immunohistochemical (IHC) staining. Subjects with an HER2:FISH ratio of 1.8:2.2 were eligible, consistent with ASCO/CAP guidelines (Wolff et al., J. Clin. Oncol. 25:118-145, 2007).

[3] = system: subjects with locally recurrent or metastatic HER2 negative breast cancer; assay: Phase II first-line trial, safety outcomes
Procedure: as §1

[4] = ER−/PR−/HER2−, n 2, CI not available
[5] = All Subjects, listed as eribulin

C=C1C[C@@H]2CC[C@@]34C[C@H]5O[C@H]6[C@@H](O3)[C@H]3O[C@H](CC[C@@H]3O[C@H]6[C@H]5O4)CC(=O)C[C@@H]3[C@@H](OC)[C@@H](C[C@H](O)CN)O[C@H]3C[C@H]3O[C@@H](CC[C@@H]1O2)C[C@@H](C)C3=C.CS(=O)(=O)O [Eribulin, 11,15:18,21:24,28-Triepoxy-7,9-ethano-12,15-methano-9H,15H-furo[3,2-i]furo[2′,3′:5,6]pyrano[4,3-b][1,4]dioxacyclopentacosin-5(4H)-one, 2-[(2S)-3-amino-2-hydroxypropyl]hexacosahydro-3-methoxy-26-methyl-20,27-bis(methylene)-, (2R,3R,3aS,7R,8aS,9S,10aR,11S,12R,13aR,13bS,15S,18S,21S,24S,26R,28R,29aS)-methanesulfonate (salt)]
DOR (duration of response), Median months (95% CI) ([1]; ALL, 16 responders): 5.8 (4.7-10.6) months
TTR (time to first response), Median months (95% CI) ([1]; ALL, 16 responders): 1.4 (1.2-2.7) months
TTR (time to first response), Median months (95% CI) ([1]; ALL, 16 responders, listed as eribulin): 1.4 months
PFS, Median months (95% CI) ([1]; ALL, N 56): 6.8 (4.4-7.6) months
PFS, Median months (95% CI) ([1]; ALL, N 56, listed as eribulin): 6.8 months
Clinical benefit rate (CR + PR + ≧6 months SD) ([1]; ALL, N = 56): 29 (51.8) n (%)
Complete response (CR) ([1]; ALL, N = 56): 0 n (%)
Disease control rate (CR + PR + SD) ([1]; ALL, N = 56): 42 (75.0) n (%)
Not evaluable/unknown (response category) ([1]; ALL, N = 56): 3 (5.4) n (%)
Objective response rate (ORR) ([1]; ALL, N = 56): 16 (28.6) n (%)
Partial response (PR) ([1]; ALL, N = 56): 16 (28.6) n (%)
Progressive disease (PD) ([1]; ALL, N = 56): 11 (19.6) n (%)
ORR ([1]; ER+ subgroup): 34.1%
disease control rate ([1]; ER+ subgroup): 85.4%
DOR, Median months (95% CI) ([1]; ER+, n 14): 7.4 (4.6-27.5) months
TTR, Median months (95% CI) ([1]; ER+, n 14): 2.0 (1.3-2.7) months
PFS, Median months (95% CI) ([1]; ER+, n 41): 7.4 (6.1-11.9) months
PFS, Median months (95% CI) ([1]; ER+, n 41, listed as eribulin): 7.4 months
Clinical benefit rate (CR + PR + ≧6 months SD) ([1]; ER+, n = 41): 26 (63.4) n (%)
Complete response (CR) ([1]; ER+, n = 41): 0 n (%)
Disease control rate (CR + PR + SD) ([1]; ER+, n = 41): 35 (85.4) n (%)
Not evaluable/unknown (response category) ([1]; ER+, n = 41): 1 (2.4) n (%)
Objective response rate (ORR) ([1]; ER+, n = 41): 14 (34.1) n (%)
Partial response (PR) ([1]; ER+, n = 41): 14 (34.1) n (%)
Progressive disease (PD) ([1]; ER+, n = 41): 5 (12.2) n (%)
DOR, Median months [1, 4]: 5.2* months
TTR, Median months [1, 4]: 1.1* months
PFS, Median months (95% CI) ([1]; ER−/PR−/HER2−, n 12): 3.4 (1.2-6.8) months
sum of target lesion diameters from baseline to postbaseline nadir ([1]; FIG. 12, in words): majority of patients experienced a decrease
Objective response rate (ORR) ([1]; Triple negative (ER−/PR−/HER2−), n = 12): 2 (16.1) n (%)
Clinical benefit rate (CR + PR + ≧6 months SD) ([1]; Triple negative, n = 12): 3 (25.0) n (%)
Complete response (CR) ([1]; Triple negative, n = 12): 0 n (%)
Disease control rate (CR + PR + SD) ([1]; Triple negative, n = 12): 6 (50.0) n (%)
Not evaluable/unknown (response category) ([1]; Triple negative, n = 12): 1 (8.3) n (%)
Partial response (PR) ([1]; Triple negative, n = 12): 2 (16.7) n (%)
Progressive disease (PD) ([1]; Triple negative, n = 12): 5 (41.7) n (%)
ORR ([1]; all patients (16/56)): 28.6%
median PFS ([1]; patients who did not receive prior A/T): 5.7 months
median PFS ([1]; patients who had received prior A/T): 5.9 months
clinical benefit rate (CBR) ([1]; patients with prior A/T (15/33)): 45.5%
ORR ([1]; patients with prior neo/adjuvant anthracyclines and/or taxanes (A/T) (9/33)): 27.3%
DOR (duration of response), Median months (95% CI) ([2]; All Subjects): 7.4 (3.29, NE) months
TTR (time to first response), Median months (95% CI) ([2]; All Subjects): 1.4 (1.31, 2.69) months
DOR (duration of response), Median months (95% CI) [2, 5]: 7.4 months
TTR (time to first response), Median months (95% CI) [2, 5]: 1.4 months
PFS, Median months (95% CI) ([2]; All Subjects, N 48): 5.9 (3.48, 7.39) months
PFS, Median months (95% CI) ([2]; All Subjects, N 48, listed as eribulin): 5.9 months
Clinical benefit rate (CR + PR + durable SD) ([2]; All, N = 48): 22 (45.8) n (%)
Complete response (CR) ([2]; All, N = 48): 0 n (%)
Disease control rate (CR + PR + SD) ([2]; All, N = 48): 36 (75.0) n (%)
Not evaluable/unknown (response category) ([2]; All, N = 48): 1 (2.1) n (%)
Objective response rate (ORR) ([2]; All, N = 48): 13 (27.1) n (%)
Partial response (PR) ([2]; All, N = 48): 13 (27.1) n (%)
Progressive disease (PD) ([2]; All, N = 48): 11 (22.9) n (%)
DOR, Median months (95% CI) ([2]; ER+ Subjects, N 10): 7.4 (3.29, NE) months
TTR, Median months (95% CI) ([2]; ER+ Subjects, N 10): 1.4 (1.22, 2.66) months
PFS, Median months (95% CI) ([2]; ER+ Subjects, N 35): 6.7 (4.14, 8.54) months
Clinical benefit rate (CR + PR + durable SD) ([2]; ER+, N = 35): 19 (54.3) n (%)
Complete response (CR) ([2]; ER+, N = 35): 0 n (%)
Disease control rate (CR + PR + SD) ([2]; ER+, N = 35): 29 (82.9) n (%)
Not evaluable/unknown (response category) ([2]; ER+, N = 35): 0 n (%)
Objective response rate (ORR) ([2]; ER+, N = 35): 10 (28.6) n (%)
Partial response (PR) ([2]; ER+, N = 35): 10 (28.6) n (%)
Progressive disease (PD) ([2]; ER+, N = 35): 6 (17.1) n (%)
sum of target lesion diameters from baseline to post-baseline nadir ([2]; FIG. 10, in words): majority of patients experienced a decrease
Objective response rate (ORR) ([2]; Triple Negative (ER−/PR−/HER2−), N = 10): 3 (30.0) n (%)
TTR, Median months (95% CI) ([2]; Triple Negative Subjects, N 3): 2.9 (1.15, 5.59) months
PFS, Median months (95% CI) ([2]; Triple Negative Subjects, N 10): 4.7 (1.05, NE) months
Clinical benefit rate (CR + PR + durable SD) ([2]; Triple Negative, N = 10): 3 (30.0) n (%)
Complete response (CR) ([2]; Triple Negative, N = 10): 0 n (%)
Disease control rate (CR + PR + SD) ([2]; Triple Negative, N = 10): 6 (60.0) n (%)
Not evaluable/unknown (response category) ([2]; Triple Negative, N = 10): 1 (10.0) n (%)
Partial response (PR) ([2]; Triple Negative, N = 10): 3 (30.0) n (%)
Progressive disease (PD) ([2]; Triple Negative, N = 10): 3 (30.0) n (%)
Objective response rate (ORR) ([2]; all patients (13/48)): 27.1%
incidence of markedly abnormal lab value: low platelets ([3]; 1/51): 2%
leucopenia (treatment-related SAE) ([3]; 1 patient): 1.8%
patients with an abnormal but not clinically significant finding ([3]; 3/52, throughout the study): 5.8%
Febrile neutropenia (treatment-related SAE) ([3]; 3 patients): 5.4%
Treatment-related SAEs ([3]; 5 patients): 8.9%
patients who discontinued the study due to an AE ([3]; 6 patients): 10.7%
incidence of markedly abnormal lab value: low lymphocytes ([3]; 8/44): 18.2%
incidence of markedly abnormal lab value: low hemoglobin ([3]; 8/55): 14.5%
patients with dose interrupted/delayed due to treatment-related AEs ([3]; 20 patients): 35.7%
patients with dose reduced due to treatment-related AEs ([3]; 20 patients): 35.7%
Treatment-related AEs leading to dose adjustment (interruption/delay, reduction, or discontinuation) ([3]; 30 patients): 53.6%
incidence of markedly abnormal lab value: low leukocytes ([3]; 31/54): 57.4%
patients with a treatment-related AE with CTCAE grade ¾ ([3]; 36 patients): 64.3%
incidence of markedly abnormal lab value: low neutrophils ([3]; 41/53): 77.4%
Treatment-related AE: Alopecia ([3]; All grades, N = 56): 47 (83.9) n (%)
Treatment-related AE: Anemia ([3]; All grades, N = 56): 20 (35.7) n (%)
Treatment-related AE: Constipation ([3]; All grades, N = 56): 15 (26.8) n (%)
Treatment-related AE: Diarrhea ([3]; All grades, N = 56): 14 (25.0) n (%)
Treatment-related AE: Fatigue ([3]; All grades, N = 56): 34 (60.7) n (%)
Treatment-related AE: Leukopenia ([3]; All grades, N = 56): 19 (33.9) n (%)
Treatment-related AE: Nausea ([3]; All grades, N = 56): 27 (48.2) n (%)
Treatment-related AE: Neutropenia ([3]; All grades, N = 56): 40 (71.4) n (%)
Treatment-related AE: Peripheral neuropathy ([3]; All grades, N = 56): 32 (57.1) n (%)
Treatment-related AE: Anemia ([3]; Grade 3/4, N = 56): 2 (3.6) n (%)
Treatment-related AE: Constipation ([3]; Grade 3/4, N = 56): 0 n (%)
Treatment-related AE: Diarrhea ([3]; Grade 3/4, N = 56): 0 n (%)
Treatment-related AE: Fatigue ([3]; Grade 3/4, N = 56): 1 (1.8) n (%)
Treatment-related AE: Leukopenia ([3]; Grade 3/4, N = 56): 12 (21.4) n (%)
Treatment-related AE: Nausea ([3]; Grade 3/4, N = 56): 0 n (%)
Treatment-related AE: Neutropenia ([3]; Grade 3/4, N = 56): 28 (50.0) n (%)
Treatment-related AE: Peripheral neuropathy ([3]; Grade 3/4, N = 56): 11 (19.6) n (%)
Alopecia, neutropenia, fatigue, and peripheral neuropathy (most commonly observed treatment-related AEs), each occurring in patients ([3]; human, in vivo): > 50%
duration of grade ¾ peripheral neuropathy (median) ([3]; human, in vivo): 2.3 months
median time to first occurrence of peripheral neuropathy ([3]; human, in vivo): 4 months
AE requiring drug withdrawal in the remaining discontinued patient ([3]; in words): prolonged QT interval requiring drug withdrawal
grade ¾ neutropenia, patients ([3]; most common grade ¾ AE): 50%
Febrile neutropenia (grade 3/4) ([3]; number of patients): 4 patients
discontinuations for which peripheral neuropathy was responsible ([3]; of the 6 events resulting in discontinuations): 5
